In patent US20260078130A1, “NAMPT MODULATORS, PREPARATIONS, AND USES THEREOF” (SIRONAX LTD., priority 2022, published 2026):

Experiments:
[1] = target: T1, human enzyme NAMPT (full length) (Homo sapiens, UniProt P43490); test: NMN fluorescence biochemical assay (stimulation of NMN synthesis by NAMPT); settings: for EC50: NMN fluorescence assay, purified human NAMPT 100 nM, concentration giving half-maximal activation, read-out: Enzymatic EC50; for Enzymatic Emax: fold change of maximal activation compared to DMSO
T1 construct: human enzyme NAMPT (full length)
T1 sequence (P43490 whole entry): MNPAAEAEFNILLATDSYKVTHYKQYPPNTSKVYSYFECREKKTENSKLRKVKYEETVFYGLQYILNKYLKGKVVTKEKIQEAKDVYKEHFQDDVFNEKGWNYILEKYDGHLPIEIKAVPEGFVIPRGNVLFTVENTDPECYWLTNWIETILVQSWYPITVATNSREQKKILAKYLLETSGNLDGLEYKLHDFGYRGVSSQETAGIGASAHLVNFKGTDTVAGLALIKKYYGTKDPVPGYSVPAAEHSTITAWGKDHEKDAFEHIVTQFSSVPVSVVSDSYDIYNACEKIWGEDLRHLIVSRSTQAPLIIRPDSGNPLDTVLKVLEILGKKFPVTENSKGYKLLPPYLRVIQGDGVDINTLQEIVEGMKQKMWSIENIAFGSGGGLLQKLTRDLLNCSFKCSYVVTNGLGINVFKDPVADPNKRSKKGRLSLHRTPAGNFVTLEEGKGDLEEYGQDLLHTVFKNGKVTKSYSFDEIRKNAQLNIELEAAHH
Method in brief: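 Full-length human NAMPT (100 nM) was preincubated 15 min at 37 °C with compound in 50 mM Tris-HCl pH 7.5, 10 mM MgCl2, 2 mM DTT, then reacted 1 h at 37 °C with 50 μM NAM, 100 μM PRPP, 4 mM ATP (stated solution concentrations). NMN was derivatised with acetophenone/KOH then formic acid and read at Ex/Em 382/445 nm; EC50 and Emax (fold over DMSO) reported.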

[2] = system: endogenous NAMPT in U2OS cells; test: Cellular NAD+ modulation assay (NAD/NADH-Glo, U2OS cells); format: cell-based; settings: Homo sapiens, 24 hours incubation, cellular NAD+; for maximal fold induction: read-out: Cellular Emax
Method in brief: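 NAD/NADH-Glo luminescence quantified NAD+ after acid treatment (60 °C, 15 min) and neutralization of DTAB lysates. Beforehand, U2OS cells seeded 16 h earlier received compound concentration series for 24 h at 37 °C. Values given as half-maximal activation concentration (EC50) and maximal fold change versus DMSO (Emax).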

| Compound | EC50 [1] [nM] | Enzymatic Emax [1] | EC50 [2] [nM] | maximal fold induction [2] |
| --- | --- | --- | --- | --- |
| Cn1ncc(Cl)c1CC1c2cc(C3CC3)ccc2C(=O)N1Cc1ccc2[nH]nnc2c1 (stereo not drawn) [Compound 350, 2-((1H-benzo[d][1,2,3]triazol-5-yl)methyl)-3-((4-chloro-1-methyl-1H-pyrazol-5-yl)methyl)-5-cyclopropylisoindolin-1-one] | < 500 | A (A>3) | < 500 | > 1.5 |
| N#Cc1cncc(C#N)c1CC1c2ccccc2C(=O)N1Cc1ccc2[nH]nnc2c1 (stereo not drawn) [Compound 351, 4-((2-((1H-benzo[d][1,2,3]triazol-5-yl)methyl)-3-oxoisoindolin-1-yl)methyl)pyridine-3,5-dicarbonitrile] | < 500 | A (A>3) | < 500 | > 1.5 |
| Cn1nc(C#N)c(CC2c3ccccc3C(=O)N2Cc2ccc3[nH]nnc3c2)c1Cl (stereo not drawn) [Compound 352, 4-((2-((1H-benzo[d][1,2,3]triazol-5-yl)methyl)-3-oxoisoindolin-1-yl)methyl)-5-chloro-1-methyl-1H-pyrazole-3-carbonitrile] | < 500 | A (A>3) | < 500 | > 1.5 |
| N#Cc1ccnc(C#N)c1CC1c2ccccc2C(=O)N1Cc1ccc2[nH]nnc2c1 (stereo not drawn) [Compound 353, 3-((2-((1H-benzo[d][1,2,3]triazol-5-yl)methyl)-3-oxoisoindolin-1-yl)methyl)pyridine-2,4-dicarbonitrile] | < 500 | A (A>3) | < 500 | > 1.5 |
| Cn1ncc(Cl)c1CC1c2cc(Cl)ccc2C(=O)N1Cc1ccc2[nH]nnc2c1 (stereo not drawn) [Compound 354, 2-((1H-benzo[d][1,2,3]triazol-5-yl)methyl)-5-chloro-3-((4-chloro-1-methyl-1H-pyrazol-5-yl)methyl)isoindolin-1-one] | < 500 | A (A>3) | < 500 | > 1.5 |
| Cc1ccnc(C#N)c1CC1c2cccc(F)c2C(=O)N1Cc1ccc2[nH]nnc2c1 (stereo not drawn) [Compound 356, 3-((2-((1H-benzo[d][1,2,3]triazol-5-yl)methyl)-4-fluoro-3-oxoisoindolin-1-yl)methyl)-4-methylpicolinonitrile] | < 500 | A (A>3) | < 500 | > 1.5 |
| Cc1noc(Cl)c1CC1c2ccccc2C(=O)N1Cc1ccc2[nH]nnc2c1 (stereo not drawn) [Compound 357, 2-((1H-benzo[d][1,2,3]triazol-5-yl)methyl)-3-((5-chloro-3-methylisoxazol-4-yl)methyl)isoindolin-1-one] | 500 to 5000 | A (A>3) | < 500 | > 1.5 |
| Cc1ccnc(C#N)c1CC1c2cc(C#N)ccc2C(=O)N1Cc1ccc2[nH]nnc2c1 (stereo not drawn) [Compound 359, 2-((1H-benzo[d][1,2,3]triazol-5-yl)methyl)-3-((2-cyano-4-methylpyridin-3-yl)methyl)-1-oxoisoindoline-5-carbonitrile] | < 500 | B (3≥B>2) | 500 to 5000 | > 1.5 |
| Cc1ccnc(C#N)c1CC1c2cc(C3CC3)ccc2C(=O)N1Cc1ccc2[nH]nnc2c1 (stereo not drawn) [Compound 360, 3-((2-((1H-benzo[d][1,2,3]triazol-5-yl)methyl)-6-cyclopropyl-3-oxoisoindolin-1-yl)methyl)-4-methylpicolinonitrile] | < 500 | B (3≥B>2) | < 500 | > 1.5 |
| Cn1nc(C(F)F)c(Cl)c1CC1c2ccccc2C(=O)N1Cc1ccc2[nH]nnc2c1 (stereo not drawn) [Compound 361, 2-((1H-benzo[d][1,2,3]triazol-5-yl)methyl)-3-((4-chloro-3-(difluoromethyl)-1-methyl-1H-pyrazol-5-yl)methyl)isoindolin-1-one] | < 500 | B (3≥B>2) | < 500 | > 1.5 |
| Cn1nc(C(F)(F)F)c(Cl)c1CC1c2ccccc2C(=O)N1Cc1ccc2[nH]nnc2c1 (stereo not drawn) [Compound 362, 2-((1H-benzo[d][1,2,3]triazol-5-yl)methyl)-3-((4-chloro-1-methyl-3-(trifluoromethyl)-1H-pyrazol-5-yl)methyl)isoindolin-1-one] | < 500 | B (3≥B>2) | < 500 | > 1.5 |
| Cc1cncc(C#N)c1CC1c2ccccc2C(=O)N1Cc1ccc2[nH]nnc2c1 (stereo not drawn) [Compound 364, 4-((2-((1H-benzo[d][1,2,3]triazol-5-yl)methyl)-3-oxoisoindolin-1-yl)methyl)-5-methylnicotinonitrile] | < 500 | B (3≥B>2) | < 500 | > 1.5 |
| Cn1ncc(Cl)c1CC1c2cc(C3COC3)ccc2C(=O)N1Cc1ccc2[nH]nnc2c1 (stereo not drawn) [Compound 370, 2-((1H-benzo[d][1,2,3]triazol-5-yl)methyl)-3-((4-chloro-1-methyl-1H-pyrazol-5-yl)methyl)-5-(oxetan-3-yl)isoindolin-1-one] | < 500 | B (3≥B>2) | < 500 | > 1.5 |
| COCCOc1nn(C)c(CC2c3ccccc3C(=O)N2Cc2ccc3[nH]nnc3c2)c1Cl (stereo not drawn) [Compound 371, 2-((1H-benzo[d][1,2,3]triazol-5-yl)methyl)-3-((4-chloro-3-(2-methoxyethoxy)-1-methyl-1H-pyrazol-5-yl)methyl)isoindolin-1-one] | < 500 | B (3≥B>2) | < 500 | > 1.5 |
| Cc1ccnc(C(C)(C)O)c1CC1c2ccccc2C(=O)N1Cc1ccc2[nH]nnc2c1 (stereo not drawn) [Compound 375, 2-((1H-benzo[d][1,2,3]triazol-5-yl)methyl)-3-((2-(2-hydroxypropan-2-yl)-4-methylpyridin-3-yl)methyl)isoindolin-1-one] | < 500 | A (A>3) | < 500 | > 1.5 |
| Cc1ccnc(Br)c1CC1c2ccccc2C(=O)N1C/C=C/c1c[nH]nn1 (stereo not drawn) [Compound 380, (E)-2-(3-(1H-1,2,3-triazol-4-yl)allyl)-3-((2-bromo-4-methylpyridin-3-yl)methyl) isoindolin-1-one] | < 500 | B (3≥B>2) | < 500 | > 1.5 |
| Cn1c(CC2c3ccccc3C(=O)N2Cc2ccc3[nH]nnc3c2)c(Cl)ccc1=O (stereo not drawn) [Compound 381, 2-((1H-benzo[d][1,2,3]triazol-5-yl)methyl)-3-((3-chloro-1-methyl-6-oxo-1,6-dihydropyridin-2-yl)methyl)isoindolin-1-one] | < 500 | B (3≥B>2) | < 500 | > 1.5 |
| Cn1ncc(Cl)c1CC1c2cc(C(C)(C)O)ccc2C(=O)N1Cc1ccc2[nH]nnc2c1 (stereo not drawn) [Compound 382, 2-((1H-benzo[d][1,2,3]triazol-5-yl)methyl)-3-((4-chloro-1-methyl-1H-pyrazol-5-yl)methyl)-5-(2-hydroxypropan-2-yl)isoindolin-1-one] | 500 to 5000 | B (3≥B>2) | 500 to 5000 | > 1.5 |
| Cc1ncnc(C#N)c1CC1c2ccccc2C(=O)N1Cc1ccc2[nH]nnc2c1 (stereo not drawn) [Compound 384, 5-((2-((1H-benzo[d][1,2,3]triazol-5-yl)methyl)-3-oxoisoindolin-1-yl)methyl)-6-methylpyrimidine-4-carbonitrile] | < 500 | B (3≥B>2) | < 500 | > 1.5 |
| CN1CC(c2ccc3c(c2)C(Cc2c(Cl)cnn2C)N(Cc2ccc4[nH]nnc4c2)C3=O)C1 (stereo not drawn) [Compound 385, 2-((1H-benzo[d][1,2,3]triazol-5-yl)methyl)-3-((4-chloro-1-methyl-1H-pyrazol-5-yl)methyl)-5-(1-methylazetidin-3-yl)isoindolin-1-one] | 500 to 5000 | B (3≥B>2) | 5000 to 50000 | > 1.5 |
| O=C1c2ccccc2C(Cc2n[nH]cc2Cl)N1Cc1ccc2[nH]nnc2c1 (stereo not drawn) [Compound 388, 2-((1H-benzo[d][1,2,3]triazol-5-yl)methyl)-3-((4-chloro-1H-pyrazol-3-yl)methyl)isoindolin-1-one] | < 500 | B (3≥B>2) | 500 to 5000 | > 1.5 |
| Cc1c(CC2c3ccccc3C(=O)N2Cc2ccc3[nH]nnc3c2)c(C#N)nn1C (stereo not drawn) [Compound 393, 4-((2-((1H-benzo[d][1,2,3]triazol-5-yl)methyl)-3-oxoisoindolin-1-yl)methyl)-1,5-dimethyl-1H-pyrazole-3-carbonitrile] | < 500 | B (3≥B>2) | < 500 | > 1.5 |
| Cn1ncc(Cl)c1CC1c2cc(CC3COC3)ccc2C(=O)N1Cc1ccc2[nH]nnc2c1 (stereo not drawn) [Compound 394, 2-((1H-benzo[d][1,2,3]triazol-5-yl)methyl)-3-((4-chloro-1-methyl-1H-pyrazol-5-yl)methyl)-5-(oxetan-3-ylmethyl)isoindolin-1-one] | < 500 | B (3≥B>2) | 500 to 5000 | > 1.5 |
| CC1NC(=O)OC12CC(CN1C(=O)c3ccccc3C1Cc1ncccc1Br)C2 (stereo not drawn) [Compound 395, 2-((1-((3-bromopyridin-2-yl)methyl)-3-oxoisoindolin-2-yl)methyl)-8-methyl-5-oxa-7-azaspiro[3.4]octan-6-one] | 500 to 5000 | C (2≥C) | 500 to 5000 | > 1.5 |
